According to patent US20110183980A1, “O-BENZYL NICOTINAMIDE ANALOGS AS MGLUR5 POSITIVE ALLOSTERIC MODULATORS” (priority 2009, published 2011):

molecular target: T1, rat mGluR5 (Rattus norvegicus, UniProt P31424); test: Potentiation of glutamate response, Ca2+ fluorescence (FDSS) in HEK cells transfected with rat mGluR5; format: cell-based; conditions: Table 1; potentiation of mGluR5 response to glutamate; read-out: EC50
T1 construct: expressed in transfected cells; host or cells: human embryonic kidney (HEK) cells
T1 sequence (P31424 21-1203): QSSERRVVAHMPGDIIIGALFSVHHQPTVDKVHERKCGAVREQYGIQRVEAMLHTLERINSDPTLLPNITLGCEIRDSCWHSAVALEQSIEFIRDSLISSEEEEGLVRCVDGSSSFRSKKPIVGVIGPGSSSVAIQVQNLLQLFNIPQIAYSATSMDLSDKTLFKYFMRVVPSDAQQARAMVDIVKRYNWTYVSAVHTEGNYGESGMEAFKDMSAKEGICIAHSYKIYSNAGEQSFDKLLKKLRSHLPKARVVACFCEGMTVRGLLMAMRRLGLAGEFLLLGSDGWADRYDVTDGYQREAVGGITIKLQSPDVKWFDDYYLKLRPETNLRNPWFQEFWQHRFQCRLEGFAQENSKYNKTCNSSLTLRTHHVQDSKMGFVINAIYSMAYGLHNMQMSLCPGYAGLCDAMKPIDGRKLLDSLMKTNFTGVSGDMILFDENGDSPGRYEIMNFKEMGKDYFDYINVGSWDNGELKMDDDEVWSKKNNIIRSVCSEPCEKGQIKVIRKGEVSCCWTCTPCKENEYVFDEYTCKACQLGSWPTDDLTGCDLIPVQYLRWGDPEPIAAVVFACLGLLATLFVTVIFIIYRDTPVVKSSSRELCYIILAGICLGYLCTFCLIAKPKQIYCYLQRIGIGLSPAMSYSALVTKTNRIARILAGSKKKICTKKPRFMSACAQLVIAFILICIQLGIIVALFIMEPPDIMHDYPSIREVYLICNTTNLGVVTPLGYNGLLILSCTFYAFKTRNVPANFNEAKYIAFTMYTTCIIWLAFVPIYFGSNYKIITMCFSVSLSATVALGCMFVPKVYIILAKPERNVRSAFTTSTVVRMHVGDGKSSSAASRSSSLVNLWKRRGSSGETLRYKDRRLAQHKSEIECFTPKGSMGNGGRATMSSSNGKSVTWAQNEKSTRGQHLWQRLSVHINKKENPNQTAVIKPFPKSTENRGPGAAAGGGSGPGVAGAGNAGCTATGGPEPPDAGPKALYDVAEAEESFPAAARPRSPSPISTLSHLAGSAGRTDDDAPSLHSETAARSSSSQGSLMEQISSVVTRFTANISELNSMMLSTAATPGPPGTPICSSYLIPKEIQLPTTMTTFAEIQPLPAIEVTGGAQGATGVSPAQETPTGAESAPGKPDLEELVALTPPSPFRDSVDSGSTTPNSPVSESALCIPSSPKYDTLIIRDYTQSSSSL
Method: Human embryonic kidney (HEK) cells transfected with rat mGluR5 were plated in clear bottom assay plates for assay in a Functional Drug Screening System (FDSS). The cells were loaded with a Ca^2+-sensitive fluorescent dye (e.g., Fluo-4), and the plates were washed and placed in the FDSS instrument. After establishment of a fluorescence baseline for twelve seconds, the compounds of the present invention were added to the cells, and the response in cells was measured. Five minutes later, an mGluR5 agonist (e.g., glutamate, 3,5-dihydroxyphenylglycine, or quisqualate) was added to the cells, and the response of the cells was measured. Potentiation of the agonist response of mGluR5 by the compounds in the present invention was observed as an increase in response to non-maximal concentrations of agonist (here, glutamate) in the presence of compound compared to the response to agonist in the absence of compound.
The above described assay operated in two modes. In the first mode, a range of concentrations of the present compounds were added to cells, followed by a single fixed concentration of agonist. If a compound acted as a potentiator, an EC50 value for potentiation and a maximum extent of potentiation by the compound at this concentration of agonist was determined by non-linear curve fitting. In the second mode, several fixed concentrations of the present compounds were added to various wells on a plate, followed by a range of concentrations of agonist for each concentration of present compound; the EC50 values for the agonist at each concentration of compound were determined by non-linear curve fitting. A decrease in the EC50 value of the agonist with increasing concentrations of the present compounds (a leftward shift of the agonist concentration-response curve) is an indication of the degree of mGluR5 potentiation at a given concentration of the present compound. An increase in the EC50 value of the agonist with increasing concentrations of the present compounds (a rightward shift of the agonist concentration-response curve) is an indication of the degree of mGluR5 antagonism at a given concentration of the present compound. The second mode also indicates whether the present compounds also affect the maximum response to mGluR5 to agonists.

SMILES | EC50 [nM]
CCCCOc1ccc(C(=O)NC2CCCCC2)cn1 [Example 1.2j.2] | 2400
O=C(Nc1ccccn1)c1ccc(OCc2ccncc2)nc1 [Example 1.2i.2] | ≥ 10000
Cc1nc(OCc2ccncc2)ccc1C(=O)NCCC(C)(C)C [Example 1.2n.1] | 3400
CCCCOc1ccc(C(=O)Nc2ccc(F)cn2)cn1 [Example 1.2j.4] | 1500
O=C(NC1CCCCC1)c1ccc(OCc2nccs2)nc1 [Example 2.3a.9] | 3100
O=C(Nc1ccc(F)cn1)c1ccc(OCc2ccccc2)nc1 [Example 1.2a.11] | 280
CC(C)(C)CCNC(=O)c1ccc(OCc2ccc(F)cc2)nc1 [Example 1.2d.4] | 690
Cc1csc(NC(=O)c2ccc(OCc3ccccc3)nc2)n1 [Example 1.2a.20] | 1600
CC(C)(C)CCNC(=O)c1ccc(OCc2ccncc2)nc1 [Example 2.3c.2] | 420
O=C(Nc1ccc(F)cc1F)c1ccc(OCc2ccc(F)cc2)nc1 [Example 1.2d.2] | 210
O=C(Nc1ccc(F)cn1)c1ccc(OCc2ccc(F)cc2)nc1 [Example 1.2d.3] | 510
CC(C)(C)NC(=O)c1ccc(OCc2ccccc2)nc1 [Example 1.2a.6] | 230
O=C(NC1CCCCC1)c1ccc(OCC2CCCC2)nc1 [Example 2.3a.4] | 710
O=C(Nc1ccccc1F)c1ccc(OCc2ccccc2)nc1 [Example 1.2a.15] | 310
O=C(Nc1ccc(F)cc1F)c1ccc(OCc2ccncc2)nc1 [Example 1.2i.4] | 810
O=C(Nc1ccc(F)cc1F)c1ccc(OCc2cccc(F)c2)nc1 [Example 1.2c.21] | 76

Results, then the compound that gave them:

EC50 [nM] | SMILES
120 | Cc1cccc(COc2ccc(C(=O)NC3CCC3)cn2)c1 [Example 1.2g.2]
120 | O=C(NC1CCC1)c1ccc(OCc2cccc(F)c2)nc1 [Example 1.2c.19]
110 | O=C(NC1CCCCC1)c1ccc(OCc2ccccc2F)nc1 [Example 1.2f.3]
94 | C[C@@H](NC(=O)c1ccc(OCc2cccc(F)c2)nc1)C1CC1 [Example 1.2c.15]
1600 | O=C(NC1CCOCC1)c1ccc(OCc2cccc(F)c2)nc1 [Example 1.2c.20]
610 | Cc1nc(OCc2cccc(F)c2)ccc1C(=O)NC1CCCCC1 [Example 1.2m.3]

same assay, conditions: Table 2; potentiation of mGluR5 response to glutamate; read-out: EC50

SMILES | EC50 [nM]
CC(C)(C)CCNC(=O)c1ccc(OCc2cc(F)cc(Br)c2)nc1 | > 10000
C[C@@H](NC(=O)c1cnc(OCc2ccncc2)c(Br)c1)C1CCCCC1 | 3600
COc1ccc(COc2ccc(C(=O)N[C@H](C)C(C)(C)C)cn2)cc1 | 5400
CC(C)(C)CCNC(=O)c1cnc(OCc2cccc(F)c2)c(C#N)c1 | 3900
Cc1cc(C(=O)Nc2ccc(F)cc2F)cnc1OCc1ccncc1 | 680
C[C@@H](NC(=O)c1ccc(OCc2ccncc2)nc1)C(C)(C)C | 570
COc1cc(F)cc(COc2ccc(C(=O)N[C@H](C)C(C)(C)C)cn2)c1 | 5100
O=C(NC(c1ccccn1)C(F)(F)F)c1ccc(OCc2cccc(F)c2)nc1 (centres unmarked) | > 10000
C[C@@H](NC(=O)c1ccc(OCc2cccc(F)c2)nc1Cl)C(C)(C)C | 370
O=C(N[C@H]1CCCC[C@@H]1O)c1ccc(OCc2ccccc2)nc1 | 2800
O=C(NC1C2CC3CC(C2)CC1C3)c1ccc(OCc2ccccc2)nc1 (centres unmarked) | 39
Cc1cc(OCc2cccc(F)c2)ncc1C(=O)Nc1ccc(F)cc1F | 920

Further lines, results first:

EC50 [nM] | SMILES
100 | O=C(N[C@@H](C1CC1)C(F)(F)F)c1ccc(OCc2cccc(F)c2)nc1
310 | C[C@@H](NC(=O)c1ccc(OCc2cccc(F)c2)nc1)C1CCOCC1
660 | CC(NC(=O)c1ccc(OCc2cccc(F)c2)nc1)C(C)(C)O (centres unmarked)
610 | C[C@H](NC(=O)c1ccc(OCc2cccc(F)c2)nc1)C(C)(C)O
1000 | CC(NC(=O)c1ccc(OCc2cccc(F)c2)nc1)C(C)(C)CO (centres unmarked)
3200 | CC(C)(C)[C@@H](CO)NC(=O)c1ccc(OCc2cccc(F)c2)nc1
3000 | COCC(C)NC(=O)c1ccc(OCc2cccc(F)c2)nc1 (centres unmarked)
